Measurements as given in US20200206157A1, “COMPOSITION FOR USE IN THE PREVENTION AND TREATMENT OF PATHOLOGIES OF THE CARDIOVASCULAR APPARATUS” (PHARMANUTRA S.P.A., priority 2017, published 2020).

How the values were obtained:
[1] = system: human aortic cell cultures; test: Calcification induced by inorganic phosphate (Pi, 2 mM) in human aortic cell cultures, Alizarin Red Staining quantification; format: cell-based; conditions: products at 0.03%; for % VAR vs CTR+: average % variation of ARS vs positive control (Pi 2 mM only); for % VAR vs CTR−: average % variation of ARS vs untreated negative control; for % VAR vs CTR− / ARS mM average: Pi 2 mM; for ARS mM average: human aortic cells, 7 days, ARS quantity proportional to calcium content
Procedure: (II) Similarly to what has been stated for the in vitro (I) study, the efficacy was tested of the composition according to the present invention comprising sucrosomial iron pyrophosphate (SRM) (Sucrosomiale®; Sucrosomial®), vitamin K2 menaquinone-7 (MK-7) and magnesium carbonate (MC) (composition called TRIO in Table 1 and FIG. 10) on the slowing of the progression of the vascular calcification induced by high levels of sodium phosphate (Pi) in a vascular cell culture and compared with the efficacy of the single components of the TRIO composition.
In particular, to execute the efficacy test, human aortic cell cultures were treated for 7 days with inorganic phosphate (Pi, 2 mM), a known calcifying agent, to induce mineralization of the cells, and with the products subjected to a concentration test 0.03% (% g of compound under examination/solution volume) and subsequently treated with the compound compositions under examination. At the end of the experimental treatment, the calcium content was quantified by a colorimetric assay, i.e. staining of the calcium deposits by Alizarin Red Staining (ARS).
The experimental design specified: untreated cell cultures (negative control CTR−), cell cultures (positive control CTR+) treated only with the calcifying agent (Pi) and cell cultures in which a calcification event was induced experimentally by the calcifying agent (Pi) and subsequently treated with the compositions/compounds under examination (0.03% concentrations) such as TRIO composition, only sucrosomial iron pyrophosphate (SRM) (Sucrosomiale®; Sucrosomial®), only vitamin K2 menaquinone-7 (MK-7) and only magnesium carbonate (MC).
The Alizarin Red Staining S (ARS) is an anthraquinone staining solution that is widely used to evaluate calcium deposits in cell cultures. Alizarin Red Staining (ARS) is versatile because the dye can be easily extracted from the coloured single layer of the cells and can be promptly dosed. The ARS quantification assay provides a sensitive tool for partial quantification of calcium in a cell matrix. Mineralization is assessed by extracting the low pH calcified mineral, neutralization with ammonia hydroxide and 405 nm colorimetric detection.
In the present study, the cells subjected to the different aforementioned treatments were fixed for ARS and the deposition of mineral was quantified by a commercially available colorimetric kit. For this purpose, a calibration curve was plotted with known and increasing ARS concentrations.
The results are set out in Table 1 and FIG. 10 as an ARS quantity that is directly proportional to the calcium content in the different experimental treatments (average value±st. dev.) and as average % variation from the controls. The data obtained from the different experimental groups were analyzed statistically and compared with T-test. The significant values in FIG. 10 compared with the positive control (p<0.05) are marked with an asterisk (*).

[2] = system: vascular smooth muscle cells (VSMCs); test: Vascular calcification induced by Pi 5 mM in VSMCs, extracellular calcium deposition on day 7; format: cell-based; conditions: rat VSMCs; for calcification inhibition: compared with 5 mM Pi in the same solvent; for effect of the individual compounds on the calcification (dose-response curves): Pi 5 mM
Procedure: The experimental model consists of vascular smooth muscle cells (VSMCs) removed from the aorta of a rat (primary cells) and stimulated for 7 days with Na3PO4 (Pi) 5 mM to induce them to […]. […] On day 7, the effect of the treatment on the extracellular calcium deposition was analyzed both by a qualitative histological method (staining of calcium deposits by Alizarin Red Staining), and by a quantitative method, by measuring the amount of […] calcium by a spectrophotometric technique (FIG. 1). Each type of experiment was repeated at least 3 times and each condition was tested at least three times within every single experiment.

Compound | % VAR vs CTR+ [1] | % VAR vs CTR− [1] | ARS mM average [1] | calcification inhibition ([2]; in ethanol) | calcification inhibition ([2]; in ethyl acetate) | effect of the individual compounds on the calcification (dose-response curves) [2]
CC(C)=CCC/C(C)=C/CC/C(C)=C/CC/C(C)=C/CC/C(C)=C/CC/C(C)=C/CC/C(C)=C/CC1=C(C)C(=O)c2ccccc2C1=O [9_MK7, menaquinone-7] | 58.0% | 34.7% | 0.100 mM | 20% | 15 to 30% | –
O=C([O-])[O-].[Mg+2] [11_MC, magnesium carbonate] | −49.6% | 61.7% | 0.120 mM | – | – | –
[Cl-].[Cl-].[Mg+2] [MgCl2, magnesium chloride] | – | – | – | – | – | powerful calcification inhibitors, with a dose-dependent protective effect
iron (III) pyrophosphate [Fe4(P2O7)3] | – | – | – | – | – | powerful calcification inhibitors, with a dose-dependent protective effect
